Data reported in patent US8815807B2, “Peptides and peptide compositions having osteoinductive activity” (President and Fellows of Harvard College, priority 2008, dated 2014).
Positions of bridges follow the written chain, without caps; N, C: chain ends. No end group written: not given here.

Columns and labels:
Format in all cases: cell-based, human
[1] = tested on: hMSC cells; assay: Alkaline phosphatase (AP) in cells contacted with peptide-displaying clones (tertiary screen); details: for induction of osteoblastic marker enzyme alkaline phosphatase: additional screening of clones
Procedure: A tertiary screen of the identified peptides was performed. The effect of each peptide on target cells was determined by measuring amounts of osteoblastic marker alkaline phosphatase (AP). Clonally purified individual isolates, or sibling pools of multiple isolates, were tested using the secondary and tertiary screens.
Individual preparations of each bacterial peptide-bearing clone to be tested were induced to express peptides, and were heat-devitalized in boiled water, to kill the peptide-displaying bacteria. Fifty microliters of heat-devitalized bacterial suspension was poured into each well of a 96-well plate containing agar, and the plate was centrifuged at 2000 rpm to embed bacteria in the surface of the agar.
Clones were further tested to quantify amount of stimulation of alkaline phosphatase (AP) activity in contacted cells. […] DNA from this clone that stimulated AP expression was isolated and was sequenced, and the DNA sequence was used to obtain amino acid sequence VFLRGNNSGGRS (SEQ ID NO: 2). This amino acid sequence appears not to have been previously reported.
Osteoinductive peptides with activity that stimulated osteoblasts include: VFLRGNNSGGRS (SEQ ID NO:2), GKIHRHRGQAVE (SEQ ID NO: 3), HIRQMPVRAGLS (SEQ ID NO: 4), RQGVGSNGXIQK (SEQ ID NO: 5), ESHCLLGISCVL (SEQ ID NO: 6), QQLQQNVILET (SEQ ID NO: 7), RSKLVEFRTTG (SEQ ID NO: 8), RNWRMSRRGGM (SEQ ID NO: 9), CVRGRGRMAGSV (SEQ ID NO: 10), ITRGELATVRRS (SEQ ID NO: 11), LRLGVGMGRTC (SEQ ID NO: 12), ERFAGNRNQLQ (SEQ ID NO: 13), GGLGSVGWYWA (SEQ ID NO: 14), GCGKERGRRALK (SEQ ID NO: 15), GQERLWAFRWVP (SEQ ID NO: 16), RGVLRVGTGRSE (SEQ ID NO: 17), ITRGELATVRRS (SEQ ID NO: 18), RPALRLGLIGPS (SEQ ID NO: 19), TRTSVDAPIRX (SEQ ID NO: 20), SKALRGVGSVAS (SEQ ID NO: 21), and RRGQDRGHEPK (SEQ ID NO: 22).

[2] = tested on: MG63 cells; assay: Cellular ATP in MG63 cells on streptavidin-coated wells treated with biotinylated peptide; details: MG63 1,000 cells/well, 120 hours after seeding, 50-3200 pmole/well, FIG. 4, versus biotin only
Procedure: (§1) Cell growth and osteogenic inducing potential of each of the preparations of the biotinylated linear and the cyclic peptides was determined. The osteogenic potential of each peptide was analyzed by quantifying cellular ATP and alkaline phosphatase (AP) activity of osteoblast cells.
(§2) Peptides were added to the wells in titrated amounts (50 pmole/well, 100 pmole/well, 200 pmole/well, 400 pmole/well, 800 pmole/well, 1600 pmole/well, or 3200 pmole/well) and were immobilized on streptavidin-coated plastic well plates (384 wells per plate). The biotin-binding capacity of the plates was 50 pmole/well. Each well was washed to remove unbound biotinylated peptides. […] MG63 cells (1,000 cells/well) were inoculated into each well.
(§3) ATP (RFU/well) was measured at each of 24 hours and 120 hours after cells were seeded, and alkaline phosphatase (AP, RFU standardized by cell number) activity was measured 120 hours after cells were seeded.

[3] = tested on: MG63 cells; assay: Alkaline phosphatase activity of MG63 cells on streptavidin-coated wells treated with biotinylated peptide; details: MG63 1,000 cells/well, 120 hours after seeding, 50-3200 pmole/well, FIG. 5, versus biotin only
Procedure: as §1, §2, §3

Substance | induction of osteoblastic marker enzyme alkaline phosphatase [1] | also measured
GGLGSVGWYWA (The protein was designed and synthesized) [SEQ ID NO: 14] | induced osteoblastic marker enzyme alkaline phosphatase | –
HIRQMPVRAGLS (The protein was designed and synthesized) [SEQ ID NO: 4] | induced osteoblastic marker enzyme alkaline phosphatase | –
RPALRLGLIGPS (The protein was designed and synthesized) [SEQ ID NO: 19] | induced osteoblastic marker enzyme alkaline phosphatase | –
RNWRMSRRGGM (The protein was designed and synthesized) [SEQ ID NO: 9] | induced osteoblastic marker enzyme alkaline phosphatase | –
NEP/cyclic: biotinylated cyclic ESHCLLGISCVL (SEQ ID NO: 6), 15 atom-PEG, synthesized by NEP (disulfide 4-10 (inferred); also: biotin, 15 atom-PEG, attachment end not given here) | – | cellular ATP amounts / cell growth, 120 hours [2]: stimulated ATP production and cellular growth; alkaline phosphatase (AP) activity, 120 hours [3]: induced greater alkaline phosphatase activity than the controls
CVRGRGRMAGSV (The protein was designed and synthesized) [SEQ ID NO: 10] | induced osteoblastic marker enzyme alkaline phosphatase | –
GEN/cyclic: biotinylated cyclic ESHCLLGISCVL (SEQ ID NO: 6), three mini-PEG repeats, synthesized by GEN (disulfide 4-10 (inferred); also: biotin, three mini-PEG repeats, attachment end not given here) | – | cellular ATP amounts / cell growth, 120 hours [2]: stimulated ATP production and cellular growth; alkaline phosphatase (AP) activity, 120 hours [3]: induced greater alkaline phosphatase activity than the controls
ITRGELATVRRS (The protein was designed and synthesized) [SEQ ID NO: 11] | induced osteoblastic marker enzyme alkaline phosphatase | –
SKALRGVGSVAS (The protein was designed and synthesized) [SEQ ID NO: 21] | induced osteoblastic marker enzyme alkaline phosphatase | –
ERFAGNRNQLQ (The protein was designed and synthesized) [SEQ ID NO: 13] | induced osteoblastic marker enzyme alkaline phosphatase | –
VFLRGNNSGGRS (The protein was designed and synthesized) [SEQ ID NO: 2] | induced osteoblastic marker enzyme alkaline phosphatase | AP expression compared with control cells contacted with empty vector ([1]; clone-contacted cells): an order of magnitude more AP expression
GQERLWAFRWVP (The protein was designed and synthesized) [SEQ ID NO: 16] | induced osteoblastic marker enzyme alkaline phosphatase | –
ESHCLLGISCVL (The protein was designed and synthesized) [SEQ ID NO: 6, osteopontin-like peptide] | induced osteoblastic marker enzyme alkaline phosphatase | cellular ATP amounts / cell growth, 120 hours [2]: induced cell growth; alkaline phosphatase (AP) activity, 120 hours [3]: production of osteogenic marker AP
NEP/linear: biotinylated linear ESHCLLGISCVL (SEQ ID NO: 6), 15 atom-PEG, synthesized by NEP (cysteine pairing not given here; also: biotin, 15 atom-PEG, attachment end not given here) | – | cellular ATP amounts / cell growth, 120 hours [2]: stimulated ATP production and cellular growth; alkaline phosphatase (AP) activity, 120 hours [3]: induced greater alkaline phosphatase activity than the controls
QQLQQNVILET (The protein was designed and synthesized) [SEQ ID NO: 7] | induced osteoblastic marker enzyme alkaline phosphatase | –
GEN/linear: biotinylated linear ESHCLLGISCVL (SEQ ID NO: 6), three mini-PEG repeats, synthesized by GEN (cysteine pairing not given here; also: biotin, three mini-PEG repeats, attachment end not given here) | – | cellular ATP amounts / cell growth, 120 hours [2]: stimulated ATP production and cellular growth; cellular ATP amounts / cell growth, 120 hours ([2]; listed as linear peptides synthesized by GEN): greater ATP amounts than those in wells treated with any of the other peptides; alkaline phosphatase (AP) activity, 120 hours [3]: induced greater alkaline phosphatase activity than the controls
TRTSVDAPIRX [SEQ ID NO: 20] | induced osteoblastic marker enzyme alkaline phosphatase | –
GCGKERGRRALK (The protein was designed and synthesized) [SEQ ID NO: 15] | induced osteoblastic marker enzyme alkaline phosphatase | –
RGVLRVGTGRSE (The protein was designed and synthesized) [SEQ ID NO: 17] | induced osteoblastic marker enzyme alkaline phosphatase | –
LRLGVGMGRTC (The protein was designed and synthesized) [SEQ ID NO: 12] | induced osteoblastic marker enzyme alkaline phosphatase | –
GKIHRHRGQAVE (The protein was designed and synthesized) [SEQ ID NO: 3] | induced osteoblastic marker enzyme alkaline phosphatase | –
RRGQDRGHEPK (The protein was designed and synthesized) [SEQ ID NO: 22] | induced osteoblastic marker enzyme alkaline phosphatase | –
RQGVGSNGXIQK [SEQ ID NO: 5] | induced osteoblastic marker enzyme alkaline phosphatase | –
RSKLVEFRTTG (The protein was designed and synthesized) [SEQ ID NO: 8] | induced osteoblastic marker enzyme alkaline phosphatase | –
